According to ChEMBL document CHEMBL2203254, “Anion inhibition studies of the fastest carbonic anhydrase (CA) known, the extremo-CA from the bacterium Sulfurihydrogenibium azorense” (Bioorg Med Chem Lett, 2012):
Structures can show the parent of a compound that is named as a salt.

Legend:
[1] = Inhibition of Sulfurihydrogenibium azorense alpha-carbonic anhydrase preincubated for 15 mins by stopped flow CO2 hydration assay
Carbonic anhydrase 2 = Carbonic anhydrase 2 (Homo sapiens, UniProt P00918); test: Inhibition of human cytosolic carbonic anhydrase 2 preincubated for 15 mins by stopped flow CO2 hydration assay
Carbonic anhydrase 1 = Carbonic anhydrase 1 (Homo sapiens, UniProt P00915); test: Inhibition of human cytosolic carbonic anhydrase 1 preincubated for 15 mins by stopped flow CO2 hydration assay
Sequence of Carbonic anhydrase 1 (P00915 whole entry): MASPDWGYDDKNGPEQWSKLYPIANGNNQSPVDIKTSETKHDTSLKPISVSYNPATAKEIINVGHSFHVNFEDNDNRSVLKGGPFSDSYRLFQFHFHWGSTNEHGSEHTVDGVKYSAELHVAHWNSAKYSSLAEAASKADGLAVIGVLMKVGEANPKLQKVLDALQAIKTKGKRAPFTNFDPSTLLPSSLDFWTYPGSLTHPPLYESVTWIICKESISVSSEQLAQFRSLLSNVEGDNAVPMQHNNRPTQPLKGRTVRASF

S [SODIUM HYDROSULFIDE]
Ki [1]: 380 µM

NS(N)(=O)=O [SULFURIC DIAMIDE SODIUM SALT]
Ki [1]: 4 µM

N=C=S [SODIUM ISOTHIOCYANATE]
Ki [1]: 580 µM

O=[Se](=O)(O)O [SODIUM SELENATE]
Ki [1]: 510 µM

S=C(S)S [SODIUM CARBONOTRITHIOATE]
Ki [1]: 39 µM

[N-]=[N+]=[N-] [SODIUM AZIDE]
Ki [1]: 340 µM

CC(=O)Nc1nnc(S(N)(=O)=O)s1 [ACETAZOLAMIDE]
Ki [1]: 0.0009 µM

O=S(=O)(O)OOS(=O)(=O)O [SODIUM PERSULFATE]
Ki [1]: 32900 µM

O=C([O-])[O-].[Na+].[Na+] [SODIUM CARBONATE]
Ki [1]: 7600 µM

O=S([O-])O.[Na+] [SODIUM BISULFITE]
Ki [1]: 950 µM

[O-][Cl+3]([O-])([O-])O [SODIUM PERCHLORATE]
Ki [1]: > 200000 µM

O=P(O)(O)OP(=O)(O)O [SODIUM PYROPHOSPHATE]
Ki [1]: 660 µM

[F-].[Na+] [SODIUM FLUORIDE]
Ki [1]: 980 µM

[I-].[Na+] [SODIUM IODIDE]
Ki [1]: 870 µM

O=[N+]([O-])[O-].[Na+] [SODIUM NITRATE]
Ki [1]: 760 µM

O=S(=O)(O)ONOS(=O)(=O)O [SODIUM IMINODISULFATE]
Ki (Carbonic anhydrase 2): 760 µM
Ki (Carbonic anhydrase 1): 310 µM
Ki [1]: 520 µM

O=BOB(O)OB(O)OB=O [SODIUM TETRABORATE]
Ki [1]: 490 µM

O=S(=O)([O-])[O-].[Na+].[Na+] [SODIUM SULFATE ANHYDROUS]
Ki [1]: 10000 µM

[Cl-].[Na+] [SODIUM CHLORIDE]
Ki [1]: 850 µM

OB(O)c1ccccc1 [PHENYLBORONIC ACID SODIUM SALT]
Ki [1]: 7 µM

O=C([O-])O.[Na+] [SODIUM BICARBONATE]
Ki [1]: 15700 µM

[Br-].[Na+] [SODIUM BROMIDE]
Ki [1]: 940 µM

CCN(CC)C(=S)S [DITIOCARB SODIUM]
Ki [1]: 3 µM

N=C=[Se] [SODIUM ISOSELENOCYANATE]
Ki (Carbonic anhydrase 1): 85 µM
Ki [1]: 490 µM

O=[Te](=O)(O)O [SODIUM TELLURATE]
Ki [1]: 410 µM

O=NO [SODIUM NITRITE]
Ki [1]: 580 µM

F[B-](F)(F)F.[Na+] [SODIUM TETRAFLUOROBORATE]
Ki [1]: > 200000 µM

NS(=O)(=O)O [SODIUM SULFAMATE]
Ki [1]: 5 µM

O=[As](O)(O)c1ccccc1 [PHENYLARSONIC ACID SODIUM SALT]
Ki [1]: 8 µM
